From ChEMBL document CHEMBL1201862, “PubChem BioAssay data set” (2004)
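All cell lines were grown in 96-well plates and treated with compound for 48 hours. Abbreviation: GI50, concentration required for 50% inhibition of growth.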 Calls of active or inactive are those of the source. No stated cut-off is given here; in the data, active = GI50 up to about 1.1 µM and inactive = higher. Where a SMILES comes first, the peptide text is derived from it. The star is where a group is joined. Cbz = O=C(OCc1ccccc1)*; NHNH2 = NN*

Legend:
Assay in all cases: inhibition of tumour cell growth, NCI panel, 48 h
BT-549 = tested on: BT-549
COLO 205 = tested on: COLO 205
EKVX = tested on: EKVX
Hs-578T = tested on: Hs-578T
IGROV-1 = tested on: IGROV-1
K562 = tested on: K562
M14 = tested on: M14
MDA-MB-435 = tested on: MDA-MB-435
MDA-N = tested on: MDA-N
NCI-H23 = tested on: NCI-H23
OVCAR-3 = tested on: OVCAR-3
OVCAR-4 = tested on: OVCAR-4
OVCAR-8 = tested on: OVCAR-8
PC-3 = tested on: PC-3
SK-MEL-5 = tested on: SK-MEL-5
SK-OV-3 = tested on: SK-OV-3
SNB-19 = tested on: SNB-19
TK-10 = tested on: TK-10
UO-31 = tested on: UO-31
SK-MEL-28 = tested on: SK-MEL-28

Measured: GI50

CCCCCCCCSC1=C(Cl)C(=O)C(OC)=C(OC)C1=O
inactive: BT-549 14 µM | COLO 205 17.1 µM | EKVX 10.9 µM | Hs-578T 20.7 µM | IGROV-1 14.1 µM | K562 9.71 µM | M14 2.16 µM | MDA-MB-435 4.45 µM | MDA-N 3.82 µM | NCI-H23 13 µM | OVCAR-3 7.14 µM | OVCAR-4 11.1 µM | OVCAR-8 12 µM | PC-3 14.2 µM | SK-MEL-5 4.74 µM | SK-OV-3 23.1 µM | SNB-19 10.5 µM | TK-10 14.1 µM | UO-31 12.1 µM

Brc1cccc(C2(CCCC3(c4cccc(Br)n4)OCCO3)OCCO2)n1
inactive: BT-549 > 100 µM | COLO 205 > 100 µM | EKVX > 100 µM | IGROV-1 > 100 µM | K562 > 100 µM | M14 > 100 µM | MDA-MB-435 > 100 µM | MDA-N > 100 µM | NCI-H23 > 100 µM | OVCAR-3 > 100 µM | OVCAR-4 > 100 µM | PC-3 > 100 µM | SK-MEL-28 > 100 µM | SK-MEL-5 > 100 µM | SK-OV-3 > 100 µM | SNB-19 > 100 µM | TK-10 > 100 µM | UO-31 > 100 µM

CC1=NN(c2nc(N)nc(CSCc3nc(N)nc(N(C)C)n3)n2)C(C)(C)C1
inactive: BT-549 > 100 µM | COLO 205 > 100 µM | EKVX > 100 µM | Hs-578T > 100 µM | IGROV-1 > 100 µM | K562 18.2 µM | M14 > 100 µM | MDA-MB-435 > 100 µM | NCI-H23 > 100 µM | OVCAR-3 > 100 µM | OVCAR-4 > 100 µM | OVCAR-8 > 100 µM | PC-3 > 100 µM | SK-MEL-28 > 100 µM | SK-MEL-5 > 100 µM | SK-OV-3 > 100 µM | SNB-19 > 100 µM | TK-10 > 100 µM | UO-31 > 100 µM

COc1ccc(OC)c2sc(N3C(=O)/C(=C/c4cccc([N+](=O)[O-])c4)N=C3c3ccccc3)nc12
inactive: BT-549 48.5 µM | COLO 205 > 100 µM | EKVX > 100 µM | Hs-578T 51.9 µM | IGROV-1 43.4 µM | K562 23.3 µM | M14 > 100 µM | MDA-MB-435 23.9 µM | MDA-N 32.4 µM | NCI-H23 86.7 µM | OVCAR-3 35.6 µM | OVCAR-8 28.5 µM | PC-3 59.7 µM | SK-MEL-28 76 µM | SK-MEL-5 49.4 µM | SK-OV-3 50.6 µM | SNB-19 > 100 µM | TK-10 74 µM | UO-31 > 100 µM

O=C1NC(=O)C(C(CC(=O)c2ccc(Cl)cc2)c2ccc(Cl)cc2)C(=O)N1 (centres undefined)
inactive: BT-549 > 100 µM | EKVX 17.1 µM | Hs-578T > 100 µM | IGROV-1 > 100 µM | K562 > 100 µM | M14 > 100 µM | MDA-MB-435 89.1 µM | MDA-N 92 µM | NCI-H23 > 100 µM | OVCAR-3 60.4 µM | OVCAR-4 > 100 µM | OVCAR-8 > 100 µM | PC-3 > 100 µM | SK-MEL-28 > 100 µM | SK-MEL-5 > 100 µM | SNB-19 > 100 µM | UO-31 > 100 µM

Clc1ccc(-c2nn3c(-c4ccncc4)nnc3s2)cc1
inactive: BT-549 > 100 µM | COLO 205 > 100 µM | EKVX > 100 µM | Hs-578T > 100 µM | IGROV-1 64.4 µM | K562 > 100 µM | M14 > 100 µM | MDA-MB-435 > 100 µM | MDA-N > 100 µM | NCI-H23 > 100 µM | OVCAR-3 > 100 µM | OVCAR-4 > 100 µM | OVCAR-8 > 100 µM | PC-3 > 100 µM | SK-MEL-5 > 100 µM | SK-OV-3 40.1 µM | SNB-19 59.2 µM | TK-10 > 100 µM | UO-31 > 100 µM

CCOC(O)(NC(=O)C(C(F)(F)F)C(F)(F)F)C(F)(F)F (centres undefined)
inactive: BT-549 > 100 µM | COLO 205 > 100 µM | EKVX > 100 µM | Hs-578T > 100 µM | IGROV-1 > 100 µM | K562 > 100 µM | M14 > 100 µM | MDA-MB-435 > 100 µM | MDA-N > 100 µM | NCI-H23 > 100 µM | OVCAR-8 > 100 µM | PC-3 > 100 µM | SK-MEL-28 > 100 µM | SK-MEL-5 > 100 µM | SNB-19 > 100 µM | TK-10 > 100 µM | UO-31 > 100 µM

CC(=O)C1(C(=O)C(=[N+]=[N-])S(=O)(=O)c2ccccc2)CC1
inactive: BT-549 > 100 µM | COLO 205 > 100 µM | EKVX > 100 µM | Hs-578T > 100 µM | IGROV-1 > 100 µM | K562 80.4 µM | M14 > 100 µM | MDA-MB-435 > 100 µM | MDA-N > 100 µM | NCI-H23 > 100 µM | OVCAR-3 > 100 µM | OVCAR-8 > 100 µM | PC-3 > 100 µM | SK-MEL-28 > 100 µM | SK-MEL-5 > 100 µM | SNB-19 > 100 µM | TK-10 > 100 µM | UO-31 > 100 µM

Cn1c2c(c3ccccc31)CC(=O)N1CCCC(C1)CC21OCCO1 (centres undefined)
inactive: BT-549 > 100 µM | COLO 205 > 100 µM | EKVX > 100 µM | IGROV-1 > 100 µM | K562 > 100 µM | M14 > 100 µM | MDA-MB-435 > 100 µM | MDA-N 33.5 µM | NCI-H23 > 100 µM | OVCAR-3 > 100 µM | OVCAR-4 > 100 µM | OVCAR-8 > 100 µM | PC-3 > 100 µM | SK-MEL-28 > 100 µM | SK-MEL-5 > 100 µM | SK-OV-3 > 100 µM | SNB-19 > 100 µM | TK-10 > 100 µM | UO-31 > 100 µM

CCOC(=O)CCC(NC(=O)OCc1ccccc1)C(=O)NC(CCC(=O)OCC)C(=O)NN (centres undefined) (Cbz-Glu(OEt)-Glu(OEt)-NHNH2; configuration not given here)
inactive: BT-549 > 100 µM | COLO 205 > 100 µM | EKVX > 100 µM | Hs-578T > 100 µM | IGROV-1 > 100 µM | K562 > 100 µM | M14 > 100 µM | MDA-N > 100 µM | OVCAR-8 > 100 µM | PC-3 > 100 µM | SK-MEL-28 > 100 µM | SK-MEL-5 > 100 µM | SNB-19 > 100 µM | TK-10 > 100 µM | UO-31 > 100 µM

O=C1OC2(C(F)(F)F)Oc3ccccc3CN2C12CCCCC2 (centres undefined)
inactive: BT-549 28.4 µM | COLO 205 18.7 µM | EKVX 38.2 µM | IGROV-1 48.4 µM | K562 20.4 µM | M14 19.5 µM | MDA-MB-435 39.6 µM | MDA-N 29.1 µM | NCI-H23 25.4 µM | OVCAR-3 28.6 µM | OVCAR-4 31.8 µM | OVCAR-8 36.3 µM | PC-3 27.6 µM | SK-MEL-28 55.2 µM | SK-OV-3 26.7 µM | SNB-19 36.3 µM | TK-10 46.2 µM | UO-31 22.9 µM

CCOC1=NC(C(F)(F)F)(C(F)(F)F)N=C(/N=C(/N)N(C)C(C(C)C)P(=O)(OC(C)C)OC(C)C)O1 (centres undefined)
inactive: BT-549 40.6 µM | COLO 205 > 100 µM | EKVX 52 µM | Hs-578T 61.4 µM | IGROV-1 69.8 µM | K562 34.7 µM | M14 > 100 µM | MDA-MB-435 > 100 µM | MDA-N > 100 µM | NCI-H23 95.3 µM | OVCAR-3 67.6 µM | OVCAR-8 48.5 µM | PC-3 > 100 µM | SK-MEL-28 > 100 µM | SK-MEL-5 59.8 µM | SK-OV-3 > 100 µM | SNB-19 > 100 µM | TK-10 > 100 µM | UO-31 > 100 µM

CC1CN=C(Nc2ccc(F)c(Cl)c2)S1 (centres undefined)
inactive: BT-549 > 100 µM | COLO 205 > 100 µM | EKVX 43.2 µM | Hs-578T > 100 µM | IGROV-1 81.7 µM | K562 62.1 µM | M14 > 100 µM | MDA-MB-435 > 100 µM | MDA-N > 100 µM | NCI-H23 51.5 µM | OVCAR-3 > 100 µM | OVCAR-8 > 100 µM | PC-3 72.4 µM | SK-MEL-28 > 100 µM | SK-MEL-5 58.5 µM | SK-OV-3 > 100 µM | SNB-19 > 100 µM | TK-10 > 100 µM | UO-31 29.8 µM

CC(C)C(=O)OCC1OC(n2c(Br)nc3c(=O)[nH]c(N)nc32)C(OC(=O)C(C)C)C1OC(=O)C(C)C (centres undefined)
inactive: BT-549 35.5 µM | COLO 205 90.4 µM | EKVX > 100 µM | Hs-578T 29 µM | IGROV-1 > 10 µM | M14 > 100 µM | MDA-N 41 µM | OVCAR-3 > 100 µM | OVCAR-8 31.4 µM | PC-3 21.6 µM | SK-MEL-5 > 10 µM | SK-OV-3 30.3 µM | SNB-19 81.8 µM | UO-31 > 100 µM

COc1ccc(C2NC(N)=C(C#N)C3=C2C(C)CCC3)cc1OC (centres undefined)
inactive: BT-549 68.2 µM | COLO 205 37.3 µM | EKVX 33.4 µM | Hs-578T 74.3 µM | IGROV-1 15.5 µM | K562 25.6 µM | M14 59.2 µM | MDA-MB-435 63.5 µM | MDA-N > 100 µM | NCI-H23 > 100 µM | OVCAR-3 31.7 µM | OVCAR-8 75.7 µM | PC-3 44.8 µM | SK-MEL-28 > 100 µM | SK-MEL-5 24.2 µM | SK-OV-3 75.3 µM | SNB-19 > 100 µM | TK-10 92.3 µM | UO-31 4.65 µM
